{
  "source": "patent US20240416137A1",
  "about": "“PERSONALIZED BIOELECTROMAGNETIC THERAPEUTICS” (OCTANE INNOVATION INC., priority 2021, published 2024)",
  "tested_on": "MDA-MB-231 cells",
  "assay": "MDA-MB-231 proliferation culture, cell counts with cisplatin and/or EMF exposure",
  "type": "cell-based, human",
  "conditions": "for reduction of cell number (cell count): cisplatin 20 μM, positive control, no EMF exposure, 5 days culture",
  "description": "MDA-MB-231 cells, a human triple-negative breast cancer cell line, were obtained at passage 40 (Sigma: 92020424). The culture media used was high glucose DMEM (Gibco: 31053-028) supplemented with 1% GlutaMAX™ (Gibco: 35050-061) and 10% fetal bovine serum (Gibco).\nCells were thawed from frozen (−150° C.), placed in a tube with warm media and spun down for 5 minutes at 240×g. After pelleting the cells, the media was removed, and the cells resuspended and seeded into a T225 flask with 45 mL of media. Cells were placed in an incubator set to 37° C. and 5.0% CO2. Media was exchanged every 2-3 days. Cells proliferated until they reached 80-90% confluency. Upon reaching this threshold. cells were passaged. Cells were washed with DPBS and detached using TrypLE Express (Gibco). The detached cells were neutralized, centrifuged, and seeded in culture vessels at a density of 10,000 cells/cm^2.\nFor experimental harvests cells were detached as when passaging and neutralized with media. A 100 μL aliquot was taken and used for cell counts. Cells were counted on a NC-200 Nucleocounter (ChemoMetec). The remaining dissociated cells were centrifuged for 2 minutes at 4000 RPM. Following centrifugation, the supernatant was aspirated, and the cell pellets were immediately frozen at −80° C. for future RNA extraction.\nCisplatin is a platinum-based chemotherapy drug that inhibits DNA synthesis. Cisplatin is used in the treatment of many cancers, including breast cancer. Cisplatin (Millipore-Sigma: 232120) was dissolved in DPBS with 140 mM NaCl at a concentration of 1 mg/mL and stored at room temperature, protected from light. The solution was further diluted in culture media to obtain the desired concentration for experiments. DPBS with 140 mM NaCl was used as a vehicle control. Cisplatin at 20 μM was used as a positive control as this concentration reduced the cell number by more than 90%. Lower concentrations of 2 μM and 0.667 μM (one tenth and one thirtieth the concentration of the positive control, respectively) were used in combination with PEMF stimulation.\nCells were exposed, as previously described for mesenchymal stem cells, to a spatially uniform, time-varying magnetic field using Helmholtz coils. A description of the exposure system (coils, signal generator, incubators, etc.) is described in Example One.\nTable 3 contains the parameters describing four different fields covering a wide range of shapes, intensities and frequencies. The two sinusoids are simple sine waves with no offset. The pulse waveform has a 10% duty cycle, creating sudden, large changes in the field's magnetic flux density (B). Finally, Experiment 4 consists of pairs of triangular waves with increasing separation equivalent to a decreasing frequency from 36 Hz to 10 Hz. The waveform consists of 15 pairs and has a period of approximately 900 ms. Positive results with Experiments 3 and 4 (described below) ledto repeating the exposures with the addition of a chemotherapy drug cisplatin). Additionally, Experiments 3 and 4 were also performed with “healthy” chondrocytes.\nChemotherapy drugs, including cisplatin, are a commonplace and proven method of treating cancer tumours despite a plethora of side effects. Large doses of these drugs can be a significant monetary and health concern for many patients so any method of reducing the dosage with an adjunct therapy is welcome. To test the combined effect of cisplatin and EMF exposure, two low concentrations (2 μM and 0.667 μM) of cisplatin were added to the culture media of MDA-MB-231 cells subjected to Experiment 3 and 4 exposures. Additionally, cells were cultured with 20 μM of cisplatin and no exposure as a “positive” control. […] The exposed cell groups are plotted relative to the unstimulated vehicle sample and when cultured with the vehicle show the same decrease in cell count as in Figure H (without vehicle). […]",
  "note": "Entries after “also recorded” stand apart in the source; their conditions may differ.",
  "data": [
    {"smiles": "N.N.[Cl][Pt][Cl]", "note": "[cisplatin, Cisplatin]", "values": [
      {"measurement": "effect on cell growth of adding EMF exposure to cisplatin", "setting": "cisplatin 2 μM and 0.667 μM plus EMF exposure Experiment 3 or 4, statistically significant vs cisplatin alone", "value": "further inhibited"},
      {"measurement": "effect on proliferation / cell count", "setting": "cisplatin 20 μM (high concentration), no EMF stimulation", "value": "drastic impact on the cell count; also recorded: inhibitory"},
      {"measurement": "reduction of cell number (cell count)", "value": 90, "unit": "%"},
      {"measurement": "reduction of cell number (cell count)", "setting": "listed as Cisplatin", "value": "more than 90%"},
      {"measurement": "reduction of cell counts by combined treatment (cisplatin + EMF exposure)", "setting": "cisplatin at 10% of positive control concentration (2 μM) with EMF exposure (Experiment 3 or 4), relative to negative control, 5 days", "value": "more than 80%"},
      {"measurement": "effect on normalized cell count", "setting": "low concentrations of cisplatin (2 μM and 0.667 μM), relative to unstimulated vehicle", "value": "significantly lowered cell counts"}
    ]}
  ]
}
